Assay results as given in patent US20070123580A1, “Combination of histone deacetylase inhibitors with chemotherapeutic agents” (priority 2003, published 2007).
“Also recorded” adds a separate entry of the source.

Assays:
[1] = test system: tumor cell lines; assay: MTS monolayer proliferation assay, combination with 5-azacytidine (cell line not stated); format: cell-based; conditions: in combination with 5-azacytidine
From the text: (§1) MTS (which is 3-(4,5 Dimethylthiazol-2-yl)-5-(3-carboxyphenyl)-2-(4-sulfophenyl)-2H-tetrazolium, inner salt) assays are used to assess the antiproliferative effects of the drug combinations. The HCT116 and MDA-MB-435P tumor cell lines, previously characterized as sensitive to HDA inhibitors, are chosen for these experiments along with clinically relevant chemotherapeutic drugs. A commercial program, “CalcuSyn”, is employed to determine whether the combined effects are synergistic, antagonistic or additive.
(§2) Two cell lines, the HCT116 human colon carcinoma cells and MDA-MB-435P, a hormone independent breast carcinoma cell line, are chosen based on their sensitivity to HDAI. Chemotherapeutic agents are paired with the cell lines based on their clinical relevance. The compounds tested in combination with N-hydroxy-3-[4-[[(2-hydroxyethyl)[2-(1H-indol-3-yl)ethyl]-amino]methyl]phenyl]-2E-2-propenamide include adriamycin which is clinically used in the treatment of breast cancer, 5-fluoruracil (5-FU), and camptothecin, used clinically for colon cancer. Due to the reported cross-talk between histone deacetylases and DNA methyl transferases, 5-azacytidine, a DNA methyltransferase inhibitor, is also tested.
Experiments are done using five-point or six-point drug titrations in 96-well tissue culture plates, with the top row left empty. HCT116 and MDA-MB-435P cells are suspended in complete media at a density of 3.6×10^3 and 2.1×10^4 cell/ml, respectively, and 190 μl are added per well. Complete medium (200 μl) is added to the top row. […] The plate is incubated at 37° C. for 4 hours and the OD is measured on a Molecular Devices Thermomax at 490 nm using the Softmax program. […]
(§3) The plates are incubated at 37° C. for 72 hours from seeding. The MTS solution is added (as for the T0 plate) and read four hours later. […]
Using the CalcuSyn program, the Combination Index (CI) is determined by the isobologram equation CI=(D)1/(Dx)1+(D)2/(Dx)2. […] For each compound the % growth values at each dose as determined in the MTS assay is used. […]

[2] = test system: p21 promoter; assay: Transcriptional activation of the p21 promoter; format: cell-based; conditions: single agent; sub-micromolar concentrations
[3] = test system: HCT116 colon carcinoma xenograft; assay: HCT116 colon carcinoma xenograft model; format: in vivo, athymic mice; conditions: single daily intravenous doses 10 to 100 mg/kg
[4] = test system: cell growth; assay: Inhibition of cell growth in vitro; format: cell-based; conditions: single agent
[5] = test system: acetylated histone H3 and H4; assay: Acetylated histone levels in HCT116 human tumor xenografts; conditions: in vivo, HCT116 human tumor xenografts from athymic mice
From the text: The compound also increases acetylated histone H3 and H4 levels in vivo, in HCT116 human tumor xenografts from athymic mice. In this example, the effects of combining N-hydroxy-3-[4-[[(2-hydroxyethyl)[2-(1H-indol-3-yl)ethyl]-amino]methyl]phenyl]-2E-2-propenamide with standard therapeutics or with other experimental drugs on monolayer proliferation of tumor cell lines are investigated.

[6] = test system: MDA-M B-435P breast carcinoma xenograft; assay: MDA-MB-435P breast carcinoma xenograft model; format: in vivo; conditions: MDA-MB-435P breast xenograft; single daily intravenous doses 10 to 100 mg/kg
[7] = test system: HCT116 cells; assay: MTS monolayer proliferation assay, drug combinations analysed with CalcuSyn; format: cell-based, human
From the text: as §1
Two cell lines, the HCT116 human colon carcinoma cells and MDA-MB-435P, a hormone independent breast carcinoma cell line, are chosen based on their sensitivity to HDAI. Chemotherapeutic agents are paired with the cell lines based on their clinical relevance. […]
Experiments are done using five-point or six-point drug titrations in 96-well tissue culture plates, with the top row left empty. […] The plate is incubated at 37° C. for 4 hours and the OD is measured on a Molecular Devices Thermomax at 490 nm using the Softmax program. […]
as §3
(§4) Using the CalcuSyn program, the Combination Index (CI) is determined by the isobologram equation CI=(D)1/(Dx)1+(D)2/(Dx)2. […]

[8] = test system: HCT116 cells; assay: Apoptosis in HCT116 cells; format: cell-based, human; conditions: single agent, sub micromolar levels, 48 to 72 hours of exposure
[9] = test system: normal dermal fibroblasts; assay: Effect on normal dermal fibroblasts; format: cell-based; conditions: single agent; compared with HCT116 cells
[10] = test system: A549 lung carcinoma xenograft; assay: A549 lung carcinoma xenograft model; format: in vivo; conditions: single daily intravenous doses 10 to 100 mg/kg
[11] = test system: MDA-MB-435P cells; assay: MTS monolayer proliferation assay, drug combinations analysed with CalcuSyn; format: cell-based, human; conditions: in combination with adriamycin
From the text: as §1, §2
Human breast carcinoma cells, MDA-MB-435P are cultured as previously described in the reference above. Cell proliferation is measured using an adaptation of published procedures essentially as described, in Zhang R D, Fidler I J, Price J E, “Relative malignant potential of human breast carcinoma cell lines established from pleural effusions and a brain metastasis”, Invasion-Metastasis 1991; 11 :204-15.
Experiments are done using five-point or six-point drug titrations in 96-well tissue culture plates, with the top row left empty. HCT116 and MDA-MB-435P cells are suspended in complete media at a density of 3.6×10^3 and 2.1×10^4 cell/ml, respectively, and 190 μl are added per well. Complete medium (200 μl) is added to the top row. 24 hours later, after the cells have attached to the bottom of the plate, 10 μl of MTS solution are added to one of the plates to determine the activity at the time of compound addition (T0). The plate is incubated at 37° C. for 4 hours and the OD is measured on a Molecular Devices Thermomax at 490 nm using the Softmax program. The T0 plate serves as a reference for initial activity at the beginning of the experiment. Compound addition begins 24 hours after seeding, the same time as the T0 determination. […] One cell line is tested with four compounds or combinations per plate. 10 microliters of each of the six dilutions are added in triplicate and complete medium is added to the bottom row. The compounds are added to the plates singly or in combination with N-hydroxy-3-[4-[[(2-hydroxyethyl)[2-(1H-indol-3-yl)ethyl]-amino]methyl]phenyl]-2E-2-propenamide. In pretreated combinations, the drugs are added simultaneously, 24 hr prior, or 24 hr after N-hydroxy-3-[4-[[(2-hydroxyethyl)[2-(1H-indol-3-yl)ethyl]-amino]methyl]phenyl]-2E-2-propenamide. As controls for pretreatment, new dilutions are added to untreated cells singly or in combination 48 hours after seeding.
The plates are incubated at 37° C. for 72 hours from seeding. The MTS solution is added (as for the T0 plate) and read four hours later. In order to analyze the data, the average value of media alone (background) is subtracted from each experimental well and the triplicate values are averaged for each compound dilution. The following formulas are used to calculate percent growth.
The “% Growth” is plotted against compound concentration and used to calculate IC50s employing the user-defined spline function in Microsoft Excel. This function uses linear regression between data points to predict the concentration of compounds at 50% inhibition. IC50s are used to determine the dose range for each compound and the resultant combinations.
as §4

[12] = test system: histone acetylation (intracellular HDA); assay: Histone acetylation in cells treated in culture; format: cell-based, human
[13] = HDAI added 24 hr prior to adriamycin
[14] = adriamycin added 24 hr prior to HDAI

## O=C(/C=C/c1ccc(CN(CCO)CCc2c[nH]c3ccccc23)cc1)NO [N-hydroxy-3-[4-[[(2-hydroxyethyl)[2-(1H-indol-3-yl)ethyl]-amino]methyl]phenyl]-2E-2-propenamide]
[1]; all drug addition schedules
  combined antiproliferative effect: mainly additive effects; also recorded: concentration-dependent effects
[1]; high inhibitory concentrations (IC50)
  combined antiproliferative effect: additive effects
[1]; low inhibitory concentrations (IC25)
  combined antiproliferative effect: antagonistic effects
[2]
  p21 promoter activation: transcriptionally activates the p21 promoter
[3]
  tumor growth: reproducibly inhibits tumor growth
[4]
  concentration inhibiting cell growth: sub-micromolar concentrations
[5]
  acetylated histone H3 levels: increases
  acetylated histone H4 levels: increases
[6]
  tumor growth: reproducibly inhibits tumor growth
[7]; in combination with 5-FU
  combined antiproliferative effect (isobologram / combination index): mainly additive effects; also recorded: additive or weak antagonistic effects
[7]; in combination with camptothecin
  combined antiproliferative effect (combination index): mainly additive effects; also recorded: additive or weak antagonism; also recorded: additive or weak antagonistic effects
[8]
  apoptosis: produces apoptosis
[9]
  cellular response of normal dermal fibroblasts: predominantly undergo cell-cycle arrest
  reduction of viability of normal dermal fibroblasts: much higher concentrations and longer times of exposure are required
[10]
  tumor growth: reproducibly inhibits tumor growth
[11]; [13]
  combination index: ~1
  combined antiproliferative effect (isobologram / combination index): additive effects
[11]; [14]
  combination index: < 0.1
  combined antiproliferative effect (isobologram / combination index): synergistic effects; also recorded: strong synergy; also recorded: very strong synergy
[11]; simultaneous addition
  combination index: ~1
  combined antiproliferative effect (isobologram / combination index): additive effects
[12]; HCT116 cells treated in culture continuously for 3 to 24 hr
  levels of histone acetylation: Increased levels of histone acetylation
[12]; single agent, sub-micromolar concentrations, cells not given
  histone acetylation: increases histone acetylation
